Laboratory results from patent US11338040B2, “Immunomodulatory compounds” (Leidos, Inc., priority 2020, dated 2022).
Non-standard residues stand in square brackets, D forms with d. Residues, ends and D or L forms follow the SMILES beside them. PEG4 = NCCOCCOCCOCCOCCC(=O)O

Experiments:
[1] = biological target: T1, interaction between LAG3 and MHC-II (Homo sapiens, UniProt P18627); assay: HTRF (TR-FRET) LAG3/MHC-II binding assay; conditions: for response in dilution curve (HTRF signal): 10-fold dilutions starting at 100 μM or 10 μM, FIGS. 2A-9B; for effect on HTRF signal: tested at 100 μM, 10 μM, and 1 μM, FIG. 1
T1 construct: purchased Cisbio US Inc
T1 sequence (P18627 23-450 limits assumed): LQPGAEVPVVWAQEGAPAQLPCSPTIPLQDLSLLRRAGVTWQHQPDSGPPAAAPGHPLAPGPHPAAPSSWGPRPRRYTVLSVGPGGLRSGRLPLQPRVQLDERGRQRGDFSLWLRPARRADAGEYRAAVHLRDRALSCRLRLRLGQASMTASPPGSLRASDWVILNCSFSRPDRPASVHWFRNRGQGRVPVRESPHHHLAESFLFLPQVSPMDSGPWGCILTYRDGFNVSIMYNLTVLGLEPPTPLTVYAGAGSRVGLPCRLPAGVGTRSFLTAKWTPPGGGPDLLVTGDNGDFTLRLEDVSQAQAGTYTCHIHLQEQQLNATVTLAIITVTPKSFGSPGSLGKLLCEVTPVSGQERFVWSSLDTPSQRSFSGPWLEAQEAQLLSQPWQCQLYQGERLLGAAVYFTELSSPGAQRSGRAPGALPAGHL
Description: A Homogeneous Time-resolved Fluorescence (HTRF) LAG3/MHC-II binding assay (Cisbio US Inc.) was used to measure the interaction between MHC-II and LAG3 in the presence of various peptides and peptide conjugates. In this assay, the interaction between Tag1-LAG3 and Tag2-MHC-II is detected by using anti-Tag1-Terbium (HTRF donor) and anti-Tag2-XL665 (HTRF acceptor). When the donor and acceptor antibodies are brought into close proximity due to LAG3 and MHC-II binding, excitation of the donor antibody triggers fluorescent resonance energy transfer (FRET) towards the acceptor antibody, which in turn emits specifically at 665 nm. This specific signal is directly proportional to the extent of LAG3/MHC-II interaction. Thus, an agent that blocks the interaction between LAG3 and MHC-II will cause a reduction in HTRF ratio.
Each of peptide conjugates BT1, BT2, BT3, BT4, BT5, BT6, BT7, BT8, BT9, and peptides LG11 (LAG3-11), LAG3-56 (SEQ ID NO:5), and LAG3-42 (SEQ ID NO:6) was tested at 3 concentrations: 100 μM, 10 μM, and 1 μM. The dashed-lines represent the HTRF ratio readout of a control ovalbumin peptide (OVA, SEQ ID NO:7) (baseline) at the respective concentrations.
peptide conjugates and LG peptides were tested in full dilution curves in the LAG3:MHCII TR-FRET Assay described above to estimate IC50. peptide conjugates were tested starting at 100 μM or 10 μM. LG peptides were tested starting at 100 μM.

PD1 = biological target: T2, PD1 (Homo sapiens, UniProt Q15116); assay: PD1/PDL1 cell reporter assay (PathHunter, Jurkat PD1/SHP1 EFC cells co-incubated with PDL1-presenting U2OS cells); assay type: cell-based; conditions: peptide conjugates at 3.6 μM, 10.8 μM, 32.5 μM in triplicate; FIG. 10
T2 construct: expressed in transfected cells; host or cells: Jurkat cells (PD1-EFC and SHP1-EFC) co-cultured with PDL1-presenting U2OS cells
T2 sequence (Q15116 25-288): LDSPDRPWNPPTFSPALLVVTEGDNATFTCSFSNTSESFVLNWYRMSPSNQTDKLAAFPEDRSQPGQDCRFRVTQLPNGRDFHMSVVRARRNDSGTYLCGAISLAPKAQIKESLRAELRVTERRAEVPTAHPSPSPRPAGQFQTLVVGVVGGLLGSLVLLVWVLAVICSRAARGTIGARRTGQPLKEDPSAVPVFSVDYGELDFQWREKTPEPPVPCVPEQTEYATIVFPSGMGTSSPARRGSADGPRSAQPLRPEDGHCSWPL
Experimental: Jurkat cells expressing PD1 and SHP1 proteins, each fused to a fragment of enzyme fragment complementation (EFC) system, were co-incubated with PDL1-presenting U2OS cells. […] Cells in co-culture were incubated at room temperature (RT) for 2 h (PD1 assay). The assay signal was generated using the PathHunter Bioassay Detection kit. Microplates were read following signal generation using a PerkinElmer ENVISION™ instrument for chemiluminescent signal detection. Inhibitory peptides or antibodies added to the culture result in reduction of light signal. The degree of inhibition was calculated using the following formula: Percent inhibition=100%×[1−(mean RLU of test sample−mean RLU of vehicle control)/mean RLU of EC80 control−mean RLU of vehicle control)].
Peptide conjugates BT1-BT11 were tested at three concentrations: 3.6 μM, 10.8 μM, 32.5 μM in triplicate wells. peptide conjugates were dissolved in DMSO and serially diluted in assay buffer. The highest concentration that can be tested in this assay was 32.5 μM peptide conjugate (1% DMSO).
Peptides LD12 (SEQ ID NO:9), LD10 (SEQ ID NO:1), and LD16 (SEQ ID NO:10) were tested at three concentrations: 11 μM, 33 μM, 100 μM in triplicate. LD peptides were dissolved in water and serially diluted in assay buffer. RLUs were measured at the end of the assay, and % Inhibition (% Efficiency) was calculated using the formula above.

[2] = Precipitation on dilution in assay buffer; assay type: physicochemical; conditions: 100 μM final in assay buffer
Experimental: FIG. 1 is a graph reporting the results of a TR-FRET assay testing the ability of peptide conjugates and individual peptides to affect the interaction between LAG3 and MHC-II. * indicates precipitation when diluted in assay buffer at 1 mM (100 μM final).

| Compound | response in dilution curve (HTRF signal) [1] | effect on HTRF signal [1] | inhibition of PD1 activity (percent inhibition of light signal) (PD1) | precipitation in assay buffer [2] |
| --- | --- | --- | --- | --- |
| CC[C@H](C)[C@H](NC(=O)[C@H](CO)NC(=O)[C@@H](NC(=O)[C@H](CC(C)C)NC(=O)[C@H](CCCNC(=N)N)NC(=O)[C@@H](NC(=O)[C@H](CC(N)=O)NC(=O)[C@@H](NC(=O)[C@@H](NC(=O)[C@H](C)NC(=O)[C@@H]1CCCN1C(=O)[C@H](CC(C)C)NC(=O)[C@H](CO)NC(=O)[C@H](CCC(N)=O)NC(=O)CCOCCOCCOCCOCCNC(=O)[C@H](CO)NC(=O)[C@H](C)NC(=O)[C@@H]1CCCN1C(=O)[C@H](Cc1c[nH]c2ccccc12)NC(=O)[C@H](CCC(=O)O)NC(=O)[C@@H]1CCCN1C(=O)[C@H](CC(C)C)NC(=O)[C@H](Cc1c[nH]cn1)NC(=O)[C@H](Cc1c[nH]c2ccccc12)NC(=O)[C@@H]1CCCN1C(=O)[C@H](CCC(=O)O)NC(=O)[C@H](CC(=O)O)NC(=O)[C@H](Cc1c[nH]c2ccccc12)NC(=O)[C@H](Cc1c[nH]c2ccccc12)NC(=O)[C@H](CCC(N)=O)NC(=O)CNC(=O)[C@@H](NC(=O)CNC(=O)[C@H](CCC(=O)O)NC(=O)[C@@H](N)Cc1c[nH]c2ccccc12)[C@@H](C)O)[C@@H](C)O)[C@@H](C)CC)C(C)C)[C@@H](C)O)C(=O)N[C@@H](CCC(N)=O)C(=O)NCC(=O)N[C@H](C(=O)N[C@H](CO)C(N)=O)[C@@H](C)O [BT5] (H-WEGTGQWWDEPWHLPEWPAS[PEG4]QSLPATINVRLTSIQGT[dS]-NH2) | reduced the HTRF signal at 10 μM | reduced the HTRF signal | did not show inhibition at any of the tested concentrations | precipitation occurred at 100 μM |
| H2N-(dS)TGQISTLRVNITAPLSQ^1-PEG4-SAPWEPLHWPEDWWQGTGEW^3-amide [BT1] | reduced the HTRF signal at 10 μM | reduced the HTRF signal | did not show inhibition at any of the tested concentrations | precipitation occurred at 100 μM |
